Source: patent US20240174624A1, “CHIRAL N-(1,3,4-OXADIAZOLE-2-YL)PHENYL CARBOXYLIC ACID AMIDES AND THEIR USE AS HERBICIDES” (Bayer Aktiengesellschaft, priority 2021, published 2024)

Key:
[1] = system: ALOMY; assay: Pre-emergence herbicidal action; type: in vivo, Alopecurus myosuroides; details: 80 g/ha, scored after 3 weeks
Excerpt: (§1) Seeds of monocotyledonous and dicotyledonous weed plants and crop plants are laid out in sandy loam soil in wood-fibre pots and covered with soil. The compounds of the invention, formulated in the form of wettable powders (WP) or as emulsion concentrates (EC), are then applied to the surface of the covering soil in the form of an aqueous suspension or emulsion at a water application rate equivalent to 600 to 800 l/ha, with addition of 0.2% wetting agent. After the treatment, the pots are placed in a greenhouse and kept under good growth conditions for the trial plants. The damage to the test plants is scored visually after a test period of 3 weeks by comparison with untreated controls (herbicidal activity in percent (%): 100% activity=the plants have died, 0% activity=like control plants). […] The tables below illustrate, in an illustrative manner, the post-emergence herbicidal action of the compounds of the invention, the herbicidal activity being stated in percent. In the experiments that follow, the herbicidal action of the compounds of the invention and that of the corresponding known racemic compounds closest from WO2012126932 and WO2018202535 were compared under the above-specified conditions by the pre-emergence and post-emergence method. The example numbers given in the tables relate to the compounds disclosed in the respective documents.

[2] = system: AMARE; assay: Pre-emergence herbicidal action; type: in vivo, Amaranthus retroflexus; details: scored after 3 weeks
Excerpt: as §1, with “percent.” for “percent. In the experiments that follow, the herbicidal action of the compounds of the invention and that of the corresponding known racemic compounds closest from WO2012126932 and WO2018202535 were compared under the above-specified conditions by the pre-emergence and post-emergence method. The example numbers given in the tables relate to the compounds disclosed in the respective documents.”

[3] = system: AVEFA; assay: Pre-emergence herbicidal action; type: in vivo, Avena fatua; details: 80 g/ha, scored after 3 weeks
Excerpt: as §1

[4] = system: DIGSA; assay: Pre-emergence herbicidal action; type: in vivo, Digitaria sanguinalis; details: scored after 3 weeks
Excerpt: as §1, with “percent.” for “percent. In the experiments that follow, the herbicidal action of the compounds of the invention and that of the corresponding known racemic compounds closest from WO2012126932 and WO2018202535 were compared under the above-specified conditions by the pre-emergence and post-emergence method. The example numbers given in the tables relate to the compounds disclosed in the respective documents.”

[5] = system: ECHCG; assay: Pre-emergence herbicidal action; type: in vivo, Echinochloa crus-galli; details: scored after 3 weeks
Excerpt: as §1, with “percent.” for “percent. In the experiments that follow, the herbicidal action of the compounds of the invention and that of the corresponding known racemic compounds closest from WO2012126932 and WO2018202535 were compared under the above-specified conditions by the pre-emergence and post-emergence method. The example numbers given in the tables relate to the compounds disclosed in the respective documents.”

[6] = system: MATIN; assay: Pre-emergence herbicidal action; type: in vivo, Matricaria inodora; details: scored after 3 weeks
Excerpt: as §1

[7] = system: SETVI; assay: Pre-emergence herbicidal action; type: in vivo, Setaria viridis; details: scored after 3 weeks
Excerpt: as §1

[8] = system: VERPE; assay: Pre-emergence herbicidal action; type: in vivo, Veronica persica; details: scored after 3 weeks
Excerpt: as §1

[9] = system: VIOTR; assay: Pre-emergence herbicidal action; type: in vivo, Viola tricolor; details: scored after 3 weeks
Excerpt: as §1, with “percent.” for “percent. In the experiments that follow, the herbicidal action of the compounds of the invention and that of the corresponding known racemic compounds closest from WO2012126932 and WO2018202535 were compared under the above-specified conditions by the pre-emergence and post-emergence method. The example numbers given in the tables relate to the compounds disclosed in the respective documents.”

[10] = system: ZEAMX; assay: Pre-emergence damage to crop plants; type: in vivo, Zea mays; details: 80 g a.i./ha, comparative experiment
Excerpt: as §1

[11] = system: BRSNW; assay: Pre-emergence damage to crop plants; type: in vivo, Brassica napus; details: 20 g a.i./ha, comparative experiment
Excerpt: as §1

[12] = system: AMARE; assay: Post-emergence herbicidal action; type: in vivo, Amaranthus retroflexus; details: assessed after about 3 weeks
Experimental: (§2) Seeds of monocotyledonous and dicotyledonous weed and crop plants are laid out in sandy loam soil in wood-fibre pots, covered with soil and cultivated in a greenhouse under good growth conditions. 2 to 3 weeks after sowing, the test plants are treated at the one-leaf stage. The compounds of the invention, formulated in the form of wettable powders (WP) or as emulsion concentrates (EC), are then sprayed onto the green parts of the plants in the form of an aqueous suspension or emulsion at a water application rate equating to 600 to 800 l/ha, with addition of 0.2% wetting agent. After the test plants have been left to stand in the greenhouse under optimal growth conditions for about 3 weeks, the action of the preparations is assessed visually in comparison to untreated controls (herbicidal action in percent (%): 100% activity=the plants have died, 0% activity=like control plants). […] The tables below illustrate, in an illustrative manner, the post-emergence herbicidal action of the compounds of the invention, the herbicidal activity being stated in percent.

[13] = system: DIGSA; assay: Post-emergence herbicidal action; type: in vivo, Digitaria sanguinalis; details: assessed after about 3 weeks
Experimental: as §2, with “percent. In the experiments that follow, the herbicidal action of the compounds of the invention and that of the corresponding known racemic compounds closest from WO2012126932 and WO2018202535 were compared under the above-specified conditions by the pre-emergence and post-emergence method. The example numbers given in the tables relate to the compounds disclosed in the respective documents.” for “percent.”

[14] = system: ECHCG; assay: Post-emergence herbicidal action; type: in vivo, Echinochloa crus-galli; details: for Herbicidal action against ECHCG: 20 g a.i./ha, comparative experiment
Experimental: as §2, with “percent. In the experiments that follow, the herbicidal action of the compounds of the invention and that of the corresponding known racemic compounds closest from WO2012126932 and WO2018202535 were compared under the above-specified conditions by the pre-emergence and post-emergence method. The example numbers given in the tables relate to the compounds disclosed in the respective documents.” for “percent.”

[15] = system: PHBPU; assay: Post-emergence herbicidal action; type: in vivo, Pharbitis purpurea; details: 20 g/ha, assessed after about 3 weeks
Experimental: as §2

[16] = system: SETVI; assay: Post-emergence herbicidal action; type: in vivo, Setaria viridis; details: for Herbicidal action against SETVI: 5 g a.i./ha, comparative experiment; for Post-emergence action against SETVI: assessed after about 3 weeks
Experimental: as §2, with “percent. In the experiments that follow, the herbicidal action of the compounds of the invention and that of the corresponding known racemic compounds closest from WO2012126932 and WO2018202535 were compared under the above-specified conditions by the pre-emergence and post-emergence method. The example numbers given in the tables relate to the compounds disclosed in the respective documents.” for “percent.”

[17] = system: VERPE; assay: Post-emergence herbicidal action; type: in vivo, Veronica persica; details: assessed after about 3 weeks
Experimental: as §2, with “percent. In the experiments that follow, the herbicidal action of the compounds of the invention and that of the corresponding known racemic compounds closest from WO2012126932 and WO2018202535 were compared under the above-specified conditions by the pre-emergence and post-emergence method. The example numbers given in the tables relate to the compounds disclosed in the respective documents.” for “percent.”

[18] = system: VIOTR; assay: Post-emergence herbicidal action; type: in vivo, Viola tricolor; details: for Herbicidal action against VIOTR: comparative experiment; for Post-emergence action against VIOTR: assessed after about 3 weeks
Experimental: as §2, with “percent. In the experiments that follow, the herbicidal action of the compounds of the invention and that of the corresponding known racemic compounds closest from WO2012126932 and WO2018202535 were compared under the above-specified conditions by the pre-emergence and post-emergence method. The example numbers given in the tables relate to the compounds disclosed in the respective documents.” for “percent.”

[19] = system: TRZAS; assay: Post-emergence damage to crop plants; type: in vivo, Triticum aestiva; details: 5 g a.i./ha, comparative experiment
Experimental: as §2, with “percent. In the experiments that follow, the herbicidal action of the compounds of the invention and that of the corresponding known racemic compounds closest from WO2012126932 and WO2018202535 were compared under the above-specified conditions by the pre-emergence and post-emergence method. The example numbers given in the tables relate to the compounds disclosed in the respective documents.” for “percent.”

[20] = system: GLXMA; assay: Post-emergence damage to crop plants; type: in vivo, Glycine max; details: 5 g a.i./ha, comparative experiment
Experimental: as §2, with “percent. In the experiments that follow, the herbicidal action of the compounds of the invention and that of the corresponding known racemic compounds closest from WO2012126932 and WO2018202535 were compared under the above-specified conditions by the pre-emergence and post-emergence method. […]” for “percent.”

SMILES: Cc1nnc(NC(=O)c2ccc(C(F)F)c([S+](C)[O-])c2Cl)o1 (stereo in doubt) [Example I-6, 2-chloro-N-(5-methyl-1,3,4-oxadiazol-2-yl)-3-[(S)-methylsulfinyl]-4-(difluoromethyl)benzamide]
- Pre-emergence action against ALOMY [1]: 100%
- Pre-emergence action against AMARE ([2]; 20 g/ha): 90%
- Pre-emergence action against AMARE ([2]; 80 g/ha): 100%
- Pre-emergence action against AVEFA [3]: 100%
- Pre-emergence action against DIGSA ([4]; 20 g/ha): 100%
- Pre-emergence action against DIGSA ([4]; 80 g/ha): 100%
- Pre-emergence action against ECHCG ([5]; 20 g/ha): 90%
- Pre-emergence action against ECHCG ([5]; 80 g/ha): 100%
- Pre-emergence action against MATIN ([6]; 20 g/ha): 90%
- Pre-emergence action against MATIN ([6]; 80 g/ha): 90%
- Pre-emergence action against SETVI ([7]; 20 g/ha): 90%
- Pre-emergence action against SETVI ([7]; 80 g/ha): 100%
- Pre-emergence action against VERPE ([8]; 20 g/ha): 90%
- Pre-emergence action against VERPE ([8]; 80 g/ha): 100%
- Pre-emergence action against VIOTR ([9]; 20 g/ha): 100%
- Pre-emergence action against VIOTR ([9]; 80 g/ha): 100%
- Damage to ZEAMX [10]: 20%
- Damage to BRSNW [11]: 40%
- Post-emergence action against AMARE ([12]; 5 g/ha): 90%
- Post-emergence action against AMARE ([12]; 20 g/ha): 100%
- Post-emergence action against DIGSA ([13]; 5 g/ha): 90%
- Post-emergence action against DIGSA ([13]; 20 g/ha): 90%
- Herbicidal action against ECHCG [14]: 100%
- Post-emergence action against ECHCG ([14]; 20 g/ha, assessed after about 3 weeks): 100%
- Post-emergence action against PHBPU [15]: 90%
- Herbicidal action against SETVI [16]: 100%
- Post-emergence action against SETVI ([16]; 5 g/ha): 100%
- Post-emergence action against SETVI ([16]; 20 g/ha): 100%
- Post-emergence action against VERPE ([17]; 5 g/ha): 90%
- Post-emergence action against VERPE ([17]; 20 g/ha): 90%
- Herbicidal action against VIOTR ([18]; 5 g a.i./ha): 80%
- Post-emergence action against VIOTR ([18]; 5 g/ha): 80%
- Herbicidal action against VIOTR ([18]; 20 g a.i./ha): 100%
- Post-emergence action against VIOTR ([18]; 20 g/ha): 100%
- Damage to TRZAS [19]: 20%
- Damage to GLXMA [20]: 40%

SMILES: Cc1nnc(NC(=O)c2ccc(C(F)F)c([S+](C)[O-])c2Cl)o1 (racemic) [7-48 from WO2018202535, 2-chloro-N-(5-methyl-1,3,4-oxadiazol-2-yl)-3-[(rac)-methylsulfinyl]-4-(difluoromethyl)benzamide, reference compound]
- Damage to ZEAMX [10]: 50%
- Damage to BRSNW [11]: 80%
- Herbicidal action against ECHCG [14]: 80%
- Herbicidal action against SETVI [16]: 80%
- Herbicidal action against VIOTR ([18]; 5 g a.i./ha): 60%
- Herbicidal action against VIOTR ([18]; 20 g a.i./ha): 80%
- Damage to TRZAS [19]: 40%
- Damage to GLXMA [20]: 60%
